For assay [1], the system named is Plasmodium falciparum strain 3D7. Briefly: SYBR Green I proliferation assay, asynchronous blood stage, 3D7.
In assay [2] the test system is PfARK2. Put plainly: Radioactive kinase assay. To be noted: highest concentration tested 2 μM. It counts as biochemical, P. falciparum.
The subject of assay [3] is Plasmodium falciparum strain Dd2. Briefly: SYBR Green I proliferation assay, asynchronous blood stage, Dd2. Format: cell-based. To be noted: for EC50: read-out: Pf Dd2 EC50.
In assay [4] the test system is HepG2 cells. Put plainly: Cytotoxicity assay. To be noted: for EC50: read-out: HepG2 EC50. It counts as cell-based, human.
Assay [5] deals with P. falciparum Dd2. Put plainly: Flow-cytometry rate of killing assay. It counts as cell-based, Plasmodium falciparum. To be noted: 10 × EC50.
Assay [6] deals with PfARK2. Briefly: ADP-Glo kinase assay. It counts as biochemical, P. falciparum. To be noted: up to 5 μM.
The target in assay [7] is CDPK2 (Plasmodium falciparum, UniProt Q8ICR0). Put plainly: KinaseSeeker split-luciferase competitive binding assay. Conditions: read-out: % activity remaining at 2.5 μM, CDPK2. Further details: species or system P. falciparum.
Sequence of CDPK2 (Q8ICR0 whole entry): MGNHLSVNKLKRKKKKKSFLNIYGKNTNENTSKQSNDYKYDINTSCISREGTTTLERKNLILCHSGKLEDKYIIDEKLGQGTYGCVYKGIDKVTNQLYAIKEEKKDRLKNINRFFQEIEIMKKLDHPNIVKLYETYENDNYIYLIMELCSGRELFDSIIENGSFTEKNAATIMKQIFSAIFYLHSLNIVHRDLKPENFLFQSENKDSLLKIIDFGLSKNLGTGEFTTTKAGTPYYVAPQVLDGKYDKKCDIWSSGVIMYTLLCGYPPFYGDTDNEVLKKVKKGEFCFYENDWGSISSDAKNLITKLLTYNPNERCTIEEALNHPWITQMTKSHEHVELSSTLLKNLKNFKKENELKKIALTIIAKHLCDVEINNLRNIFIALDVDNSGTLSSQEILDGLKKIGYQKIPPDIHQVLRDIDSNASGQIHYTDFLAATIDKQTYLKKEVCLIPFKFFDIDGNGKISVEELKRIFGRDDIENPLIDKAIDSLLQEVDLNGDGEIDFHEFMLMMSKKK
Assay [8] has as its target CDPK5 (Plasmodium falciparum, UniProt A0A5K1K8H0). Described as above. Further details: species or system P. falciparum. Conditions: read-out: % activity remaining at 2.5 μM, CDPK5.
Assay [9] deals with PK9. The description is as above. Further details: species or system P. falciparum.
Assay [10] addresses PK6 (Plasmodium falciparum, UniProt O77239). The description is as above. Further details: species or system P. falciparum. Conditions: read-out: % activity remaining at 2.5 μM, PK6.
Assay [11] addresses PK5 (Plasmodium falciparum, UniProt P61075). The assay is described as above. Further details: species or system P. falciparum. To be noted: read-out: % activity remaining at 2.5 μM, PK5.
Assay [12] addresses Pf NEK3 (PF3D7_1201600) (Plasmodium falciparum, UniProt Q8I629). Briefly: biochemical. Format: binding. To be noted: for remaining activity at 2.5 µM: read-out: % activity remaining at 2.5 μM, NEK3.
In assay [13] the test system is PfARK1. Briefly: KinaseSeeker split-luciferase competitive binding assay. Further details: species or system P. falciparum.
Assay [14] concerns human PLK1. Conditions: read-out: PLK1 IC50, from prior publication or from Selleck Chemicals ref 15, 16; cited from earlier work.
For assay [15], the target named is GSK3 (Plasmodium falciparum, UniProt O77344). Put plainly: KinaseSeeker split-luciferase competitive binding assay. Further details: species or system P. falciparum. To be noted: read-out: % activity remaining at 2.5 μM, GSK3.
For assay [16], the system named is Pf NEK1. Described as above. Further details: species or system P. falciparum.
For assay [17], the target named is PKB (Plasmodium falciparum, UniProt Q8I4W3). The description is as above. Further details: species or system P. falciparum. To be noted: read-out: % activity remaining at 2.5 μM, PKB.
Assay [18] has as its system PfARK3. The description is as above. Further details: species or system P. falciparum.
The subject of assay [19] is synchronized Dd2 parasites. Briefly: Stage-specific assay. It counts as cell-based, Plasmodium falciparum. Conditions: 5 × EC50 applied later in the ring stage (18 HPI).
Setting [20] is: 3D7, 72 h, read-out: Pf 3D7 EC50.
The mark [21] stands for this setting: Plasmodium falciparum, DD2, 72 h.
The mark [22] stands for this setting: 72 h, average ± SEM, at least three biological replicates.
Where [23] appears, read: 48 h, average ± SEM, at least three biological replicates.

Like-named read-outs stand apart in the source and are kept apart here.

Sequence of CDPK5 (A0A5K1K8H0 whole entry): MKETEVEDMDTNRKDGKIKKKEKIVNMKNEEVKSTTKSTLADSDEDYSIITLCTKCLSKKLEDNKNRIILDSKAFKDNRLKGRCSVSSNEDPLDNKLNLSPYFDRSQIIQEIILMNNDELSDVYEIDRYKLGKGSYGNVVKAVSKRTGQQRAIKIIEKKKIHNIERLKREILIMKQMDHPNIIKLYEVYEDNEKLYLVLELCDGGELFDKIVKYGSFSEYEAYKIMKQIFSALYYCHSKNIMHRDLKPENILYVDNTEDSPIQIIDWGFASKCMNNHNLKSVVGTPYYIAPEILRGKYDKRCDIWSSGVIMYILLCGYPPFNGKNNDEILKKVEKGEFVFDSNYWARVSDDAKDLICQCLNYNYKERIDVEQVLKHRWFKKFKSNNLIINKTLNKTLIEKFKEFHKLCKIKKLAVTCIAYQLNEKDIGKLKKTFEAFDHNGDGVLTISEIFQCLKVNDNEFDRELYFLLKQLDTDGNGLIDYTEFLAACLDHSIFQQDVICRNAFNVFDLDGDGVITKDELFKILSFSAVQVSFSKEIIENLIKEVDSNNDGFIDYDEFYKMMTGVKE
Sequence of PK5 (P61075 whole entry): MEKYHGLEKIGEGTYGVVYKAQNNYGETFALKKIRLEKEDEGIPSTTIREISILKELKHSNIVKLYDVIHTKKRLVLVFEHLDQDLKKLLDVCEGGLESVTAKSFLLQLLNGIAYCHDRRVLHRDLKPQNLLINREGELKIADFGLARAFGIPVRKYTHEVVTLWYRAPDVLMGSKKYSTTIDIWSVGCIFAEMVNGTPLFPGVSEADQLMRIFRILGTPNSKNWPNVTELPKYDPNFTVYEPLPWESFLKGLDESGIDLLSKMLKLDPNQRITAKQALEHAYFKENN

`CC[C@@H]1C(=O)N(C)c2cnc(Nc3ccc(C(=O)NC4CCN(C)CC4)cc3OC)nc2N1C1CCCC1` [BI-2536 (1), BI-2536]: the EC50 in assay [1] (setting [20]) was 135 ± 35 nM; in assay [1] (3D7, read-out: EC50, 3D7 clone A10), 288 nM; in assay [3] (setting [21]), 178 ± 12 nM; in assay [4] (Homo sapiens, HepG2, 48 h), 3730 ± 520 nM. Also, the “inhibitory effect in PfARK2” value in assay [2] is “neither compound displayed inhibitory effects”. Further, the “compound incubation required for a full killing effect” value (“compound incubation required” for short) in assay [5] lay within 24 to 48 h. Moreover, the “activity in PfARK2” value in assay [6] is “lack of activity”.

As to `CC[C@@H]1C(=O)N(C)c2cnc(Nc3ccc(C(=O)N[C@H]4CC[C@H](N5CCN(CC6CC6)CC5)CC4)cc3OC)nc2N1C(C)C` [BI-6727 (11), BI-6727], the remaining activity at 2.5 µM in assay [7] was determined as 100%; in [8] it was 100%; in [10] it was 67.3%; in [11], 100%; in [12], 11.1%; in [15], 100%. Besides, the remaining activity at 2.5 µM in assay [17] was 49.3%. Also, the EC50 is 284 ± 52 nM in assay [1] (setting [20]); 230 ± 14 nM in assay [3] (setting [21]); 1930 ± 460 nM in assay [4] (Homo sapiens, HepG2, 48 h). Moreover, the “Resistance Index (RI) = Dd2 EC50/3D7 EC50” value in [3] was 0.81. The “Selectivity Index (SI) = HepG2 EC50/Dd2 EC50” value (“Selectivity Index” for short) in [4] was 8.0. Besides, the “% activity remaining at 2.5 μM, PK9” value in assay [9] was 100.0%. Besides, in [5], the “compound incubation required” value lay in the range of 24 to 48 h. Also, the IC50 in assay [12] is 130 nM; in assay [14], 0.87 nM. Also, the “% activity remaining at 2.5 μM, ARK1” value in assay [13] is 100.0%. The “% activity remaining at 2.5 μM, NEK1” value in [16] is given as 93.8%. Besides, in [18], the “% activity remaining at 2.5 μM, ARK3” value stood at 83.6%. Further, the “DNA replication (YOYO-1 signal)” value in [19] was “delayed increase in the YOYO-1 signal at 54 h”.

For the molecule `C[C@@H](Oc1cc(-n2cnc3ccc(CN4CCN(C)CC4)cc32)sc1C(N)=O)c1ccccc1C(F)(F)F` [GSK461364 (12), GSK461364], the remaining activity at 2.5 µM amounted to 100% in [7]; 100% in assay [8]; 100% in assay [10]; 100% in [11]; 9.7% in [12]; 100% in assay [15]. For the same molecule, in assay [17], the remaining activity at 2.5 µM amounted to 100%. Moreover, the EC50 in assay [1] (setting [20]) was found to be 1410 ± 77 nM; in assay [3] (setting [21]) it was 533 ± 78 nM; in assay [4] (Homo sapiens, HepG2, 48 h) it was 1910 ± 210 nM. Further, the “inhibitory effect in PfARK2” value in assay [2] is “neither compound displayed inhibitory effects”. In addition, the “% activity remaining at 2.5 μM, PK9” value in assay [9] came out at 100.0%. Besides, the “compound incubation required” value in assay [5] was 24 to 48 h. Also, the IC50 was 19 nM in assay [12] and 2.2 nM in assay [14]. For the same molecule, in assay [13], the “% activity remaining at 2.5 μM, ARK1” value is recorded as 99.5%. Also, the “% activity remaining at 2.5 μM, NEK1” value in [16] came out at 100.0%. Also, the “% activity remaining at 2.5 μM, ARK3” value in [18] is 96.2%.

With `COc1cc2ncn(-c3cc(OCc4ccccc4C(F)(F)F)c(C(N)=O)s3)c2cc1OC` [GW843682 (17), GW843682], the EC50 is > 5000 nM in assay [3] (setting [22]) and > 25000 nM in assay [4] (setting [23]). For the same molecule, the IC50 in assay [14] was 2.2 nM.

Turning to `Cc1ncc(CCCN(C)C)cc1Nc1ncc2c(n1)-c1ccc(C(F)(F)F)cc1NC(=S)C2` [MLN0905 (13), MLN0905], the EC50 in assay [3] (setting [22]) turned out to be 1820 ± 260 nM; in assay [4] (setting [23]) it was 3940 ± 110 nM. For the same molecule, the “Selectivity Index” value in assay [4] came out at 2.0. Moreover, in [14], the IC50 was 2 nM.

`CN1CCN(c2ccc(OC(F)(F)F)c(Nc3ncc4c(n3)-c3c(c(C(N)=O)nn3CCO)CC4)c2)CC1` [NMS-P937 (15), NMS-P937]: the EC50 in assay [3] (setting [22]) is > 5000 nM; in assay [4] (setting [23]), 6010 ± 79 nM. The “Selectivity Index” value in [4] is […]. Moreover, the IC50 in assay [14] is […].

For the molecule `COc1cc(OC)c(/C=C/S(=O)(=O)Cc2ccc(OC)c(NCC(=O)O)c2)c(OC)c1` [ON-01910 (16), ON-01910], the EC50 in assay [3] (setting [21]) is > 5000 nM; in assay [4] (Homo sapiens, HepG2, 48 h), 11900 nM. Besides, the “Selectivity Index” value in [4] is given as […]. Further, the IC50 in assay [14] is […].

Consider `Nc1ccc(-c2ccc3ncc4ccc(=O)n(-c5cccc(C(F)(F)F)c5)c4c3c2)cn1` [torin2], for which the EC50 in assay [3] (setting [22]) came out at 5.3 ± 0.3 nM.

As for SBE 13 [SBE 13 (14)], the EC50 in assay [3] (setting [22]) is 3570 ± 130 nM; in [4] (setting [23]), > 25000 nM. In addition, the “Selectivity Index” value in assay [4] is recorded as >7.0. For the same molecule, the IC50 in [14] is 0.2 nM.

(Values after PMC10106425 (ACS infectious diseases, 2023).)
